The source of these data is patent publication US10656089B2, “Systems, devices, and methods for time-resolved fluorescent spectroscopy” (Black Light Surgical, Inc., priority 2016, dated 2020).

The test system of this assay is NADH levels in ex vivo brain sample (cortex). The experiment in a line: continuous monitoring of NADH in an ex vivo brain sample by time-resolved fluorescence spectroscopy. The settings on record: rabbit cortex ex vivo. The protocol:
Changes in NADH level were assessed to determine changes in the metabolic status of the brain sample in response to oxygen depletion, stimulation with neuro-protective drugs, and other stimuli. During ATP production in aerobic respiration conditions, NADH is oxidized to NAD+. In low oxygen conditions, for example, in areas of hypoxia or ischemia after a stroke, NADH accumulates in cells and persistent oxygen depletion can lead to cell death and breakdown of NADH. The different NADH states and levels may allow for the assessment of the viability and vulnerability of cells in an ischemic environment. Fluctuations in NADH levels were evaluated by measuring the fluorescence emission from NADH […]. […]
The system comprised a Q-switched ND:YaG laser (Teem Photonics PNVM02510) 1804 running at 1 KHz which emitted laser pulse at a wavelength of about 350 nm and a pulse width of about 400 ps full width half maximum (FWHM). […] The probe 1800 comprised a central 600 um fiber 1805 to deliver the excitation light surrounded by twelve 200 um fibers to collect the responsive fluorescence signal. […] One bundle of collection fibers 1806a was coupled to a spectrometer (Ocean Optics, Maya) which monitored the fluorescence spectrum every 100 ms. […]

In the case of `C=C(C)[C@H]1Cc2c(ccc3c2O[C@@H]2COc4cc(OC)c(OC)cc4[C@@H]2C3=O)O1` [rotenone], where the note is “50 nM rotenone added to Kreb-Ringer bath after about 30 minutes baseline”, the “NADH levels (free and bound NADH fluorescence)” value is “increased NADH levels”. Besides, under “additional rotenone doses of 1 uM and 50 uM added at 10 minute intervals”, the NADH fluorescence detected result was “further increases in fluorescence detected”.
